One experiment has as its target T1, C1q (Homo sapiens, UniProt P02745+P02746+P02747).
T1 construct: tissue Complement Technology, Inc; host or cells: normal human serum (pooled), 1% in RPMI medium
In words: ELISA for complement activation: C1q recruitment from human serum by immobilised peptide. Format: binding. To be noted: for EC50: 1% human serum in RPMI, four-parameter fit. How it is done: Maxisorb Nunc Immunoplates (Thermofisher Scientific, Massachusetts, USA) were coated with streptavidin (Thermofisher Scientific) at 10 μg mL^−1 in 0.1 M Na2CO3, 0.1 M NaHCO3 (coating buffer), pH 9.6 at 50 μL per well and allowed to incubate either at room temperature overnight, or 37 °C for 1 hour. Plates were washed with PBS with 0.05% tween-20 three times. For each following step, samples were incubated at 37 °C for 1 hour and subsequently washed with the PBS-T solution, we denote this as incubation and wash in the latter parts of the text. After streptavidin binding, wells were blocked with 100 μL of 0.1 M spermidine (Thermofisher Scientific) in distilled water incubated and washed. Then peptides were incubated in 50 μL PBS (as with all the following steps) with 0.05% Tween-20 (PBS-T) to create a peptide presenting surface and incubated and washed. In all activation assays, peptides are modified with a biotin to achieve binding to streptavidin. Note that in certain instances the peptides are initially modified with an azide. In such conditions a biotin-PEG4-DBCO (Jena Bioscience GmbH, Germany) was co-incubated with the peptides at 25 mol% excess of biotin linker to create a biotin modified peptide. This conjugation reaction took place in the plate. Hereafter the wells were incubated with 1% normal human serum (NHS) (Complement Technology, Inc., Texas, USA) in RPMI medium (Roswell Park Memorial Institute 1640 medium), then incubated and washed. Following these steps, complement components C1q or C5b-9 were detected. Primary Rabbit anti-C1q or Mouse anti C5b-9 (Dako, Denmark) was added to PBS, 0.05% Tween-20, 0.1% BSA (PBS-BT) in 1 : 2000 and 1 : 333 dilution, respectively, then incubated and washed. Next, goat anti-rabbit and anti-mouse antibodies (Dako, Denmark) modified with horseradish peroxidase (HRP) were diluted 1 : 5000 in PBS-T and added to the plates, then incubated and washed. To detect the HRP on the secondary antibody 2.5 mg mL^−1 ABTS (2′-azino-bis(3-ethylbenzothiazoline-6-sulfonic acid)) was added in citric acid buffer (0.15 M, pH 4.2) (ABTS buffer) containing 0.15 (v/v%) H2O2 was used and samples were incubated at room temperature for 30 minutes. Absorption measurements at 415 nm were performed on a CLARIOstar microplate reader (BMG Labtech, Offenburg, Germany).
Background: In an ELISA, binding on a coated surface is turned into a signal by an enzyme label.

Experiment [1] concerns C5b-9 deposition by pooled IgG. In words: Competition ELISA on pooled human IgG, C5b-9 detected. It counts as biochemical. As to the method: (§1) Materials, including buffers and blocking agent, were the same as for the activation assay, unless stated otherwise. Incubation and wash steps between added new components was kept identical to the section “Enzyme-linked immunosorbent assay (ELISA) for complement activation” above. To determine the competition with pooled human IgG (Sigma-Aldrich, USA), Maxisorb plates were coated with 10 μg mL^−1 of IgG pooled from human serum, incubated, washed and blocked with spermidine. Peptides were incubated with 1% normal human serum (pooled, Complement Technology) for at least 30 minutes before adding to the IgG coated plates. DMSO controls and no serum controls were added. Human serum with and without peptides was added to the plates and subsequent complement inhibition was determined by detecting the presence of C1q or C5b-9. Data shown in the graphs is normalized to the maximum signal of the DMSO control and the minimal signal of the no serum control. Absorption measurements at 415 were performed on a CLARIOstar microplate reader (BMG Labtech, Offenburg, Germany).

Experiment [2] concerns C1q binding to pooled IgG. In words: Competition ELISA on pooled human IgG, C1q detected. To be noted: peptide incubated with 1% human serum, pooled IgG-coated plate, two technical replicates. How it is done:
as §1

The structures appear in SMILES notation. Where two headings read alike, the source gives them in different places. Positions of bridges follow the written chain, without caps; N, C: chain ends. Non-standard residues stand in square brackets, D forms with d. Residues, ends and D or L forms follow the SMILES beside them. *: point of attachment. Biotin = O=C1N[C@H]2[C@H](CS[C@H]2CCCCC(=O)*)N1; Lys(N3) = [N-]=[N+]=NCCCC[C@H](N)C(=O)O

T1 sequence (P02745 23-245): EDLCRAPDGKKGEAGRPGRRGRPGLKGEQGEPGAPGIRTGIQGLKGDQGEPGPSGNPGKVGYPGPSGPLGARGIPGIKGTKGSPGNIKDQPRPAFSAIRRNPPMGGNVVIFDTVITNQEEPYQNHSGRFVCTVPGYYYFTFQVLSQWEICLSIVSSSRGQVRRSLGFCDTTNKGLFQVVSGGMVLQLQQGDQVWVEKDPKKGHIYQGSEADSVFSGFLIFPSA
T1 sequence (P02746 28-253): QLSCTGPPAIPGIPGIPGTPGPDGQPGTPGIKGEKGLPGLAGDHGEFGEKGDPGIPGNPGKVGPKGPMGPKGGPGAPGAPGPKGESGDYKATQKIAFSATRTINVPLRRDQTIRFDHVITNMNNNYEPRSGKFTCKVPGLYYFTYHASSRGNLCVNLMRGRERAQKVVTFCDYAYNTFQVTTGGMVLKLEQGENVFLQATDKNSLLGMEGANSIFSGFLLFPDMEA
T1 sequence (P02747 29-245): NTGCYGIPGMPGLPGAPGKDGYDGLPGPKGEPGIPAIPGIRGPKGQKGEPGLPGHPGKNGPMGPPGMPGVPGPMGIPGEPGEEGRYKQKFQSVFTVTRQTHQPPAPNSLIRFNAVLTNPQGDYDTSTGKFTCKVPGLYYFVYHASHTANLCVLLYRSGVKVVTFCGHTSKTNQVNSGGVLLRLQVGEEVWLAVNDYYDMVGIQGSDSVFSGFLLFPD
T1 sequence (P00736 18-705 partner): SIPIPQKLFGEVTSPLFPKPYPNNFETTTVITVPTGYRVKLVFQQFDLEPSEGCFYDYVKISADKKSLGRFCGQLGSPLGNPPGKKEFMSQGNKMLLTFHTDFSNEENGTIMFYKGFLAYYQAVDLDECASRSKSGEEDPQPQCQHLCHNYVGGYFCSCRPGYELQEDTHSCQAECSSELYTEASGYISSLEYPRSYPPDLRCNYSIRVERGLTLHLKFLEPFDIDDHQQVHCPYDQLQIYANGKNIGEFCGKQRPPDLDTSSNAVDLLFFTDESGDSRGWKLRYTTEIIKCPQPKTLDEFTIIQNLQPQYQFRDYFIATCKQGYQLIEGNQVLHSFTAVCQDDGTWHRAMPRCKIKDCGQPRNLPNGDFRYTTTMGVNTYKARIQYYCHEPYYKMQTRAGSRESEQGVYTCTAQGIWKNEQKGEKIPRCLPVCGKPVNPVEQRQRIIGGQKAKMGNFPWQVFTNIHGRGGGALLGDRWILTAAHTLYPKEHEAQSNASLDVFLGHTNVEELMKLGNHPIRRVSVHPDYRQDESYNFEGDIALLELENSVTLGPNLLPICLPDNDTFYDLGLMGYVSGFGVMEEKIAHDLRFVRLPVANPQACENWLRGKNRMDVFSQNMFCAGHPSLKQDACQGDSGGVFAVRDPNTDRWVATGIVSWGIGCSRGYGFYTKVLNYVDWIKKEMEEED
T1 sequence (P09871 16-688 partner): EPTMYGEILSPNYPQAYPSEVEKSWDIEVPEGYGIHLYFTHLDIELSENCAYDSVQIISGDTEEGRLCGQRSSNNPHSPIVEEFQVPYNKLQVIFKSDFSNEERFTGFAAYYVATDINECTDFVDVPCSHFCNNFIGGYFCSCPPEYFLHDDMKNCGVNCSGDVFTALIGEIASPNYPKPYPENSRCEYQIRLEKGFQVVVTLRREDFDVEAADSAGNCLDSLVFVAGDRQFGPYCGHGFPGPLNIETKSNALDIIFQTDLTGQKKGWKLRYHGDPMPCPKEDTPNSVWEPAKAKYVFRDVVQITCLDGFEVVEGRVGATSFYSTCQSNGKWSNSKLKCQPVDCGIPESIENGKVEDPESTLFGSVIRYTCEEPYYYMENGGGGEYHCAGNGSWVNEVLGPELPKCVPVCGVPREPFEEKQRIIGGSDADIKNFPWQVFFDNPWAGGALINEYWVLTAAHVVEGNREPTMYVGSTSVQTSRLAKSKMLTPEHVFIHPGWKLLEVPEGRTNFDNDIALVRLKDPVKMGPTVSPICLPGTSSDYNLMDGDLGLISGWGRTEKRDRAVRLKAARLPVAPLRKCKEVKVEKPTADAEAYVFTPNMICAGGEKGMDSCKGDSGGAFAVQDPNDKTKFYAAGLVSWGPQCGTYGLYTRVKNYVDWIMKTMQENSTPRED

As a reminder, the EC50 is the concentration at which the effect is half-maximal. Take `CC[C@H](C)[C@@H]1NC(=O)[C@H](Cc2ccccc2)NC(=O)[C@H](CCC(N)=O)NC(=O)[C@H](CC(C)C)NC(=O)[C@H]([C@@H](C)O)NC(=O)[C@H](Cc2ccccc2)NC(=O)[C@@H]2CCCN2C(=O)[C@H](CC(=O)O)NC(=O)[C@@H]2CCCN2C(=O)[C@H](Cc2ccc(O)cc2)NC(=O)[C@H](Cc2ccccc2)NC(=O)[C@H]([C@@H](C)O)NC(=O)[C@H](C(C)C)NC(=O)[C@H]([C@@H](C)O)NC(=O)[C@H](Cc2ccc(O)cc2)NC(=O)CSC[C@@H](C(=O)NCC(=O)N[C@@H](CO)C(=O)N[C@@H](CCCCN=[N+]=[N-])C(=O)NCC(=O)O)NC(=O)[C@H](C)NC1=O` [cL3-Az] ({CH2CO}-YTVTFYPDPFTLQFIACGS[Lys(N3)]G-OH; thioether N-17): at C1q (cL3-Az conjugated to biotin-DBCO linker on streptavidin plate, 1 hour 37 °C, single technical replicate, CI 5.2-7.4, R2 0.99, read-out: EC50 of C1q recruitment, Fig. S4), the EC50 amounted to 6.2 µM. The “EC50 of C1 recruitment compared with the biotinylated variant” value on C1q (cL3-Az via biotin-DBCO linker on streptavidin plate, 1% human serum) is recorded as “comparable to the biotinylated variant”.

The term IC50 denotes the concentration that inhibits the measured activity by half. As for `CC[C@H](C)[C@@H]1NC(=O)[C@H](Cc2ccccc2)NC(=O)[C@H](CCC(N)=O)NC(=O)[C@H](CC(C)C)NC(=O)[C@H]([C@@H](C)O)NC(=O)[C@H](Cc2ccccc2)NC(=O)[C@@H]2CCCN2C(=O)[C@H](CC(=O)O)NC(=O)[C@@H]2CCCN2C(=O)[C@H](Cc2ccc(O)cc2)NC(=O)[C@H](Cc2ccccc2)NC(=O)[C@H]([C@@H](C)O)NC(=O)[C@H](C(C)C)NC(=O)[C@H]([C@@H](C)O)NC(=O)[C@@H](Cc2ccc(O)cc2)NC(=O)CSC[C@@H](C(=O)NCC(=O)N[C@@H](CO)C(=O)N[C@@H](CCCCNC(=O)CCCC[C@@H]2SC[C@@H]3NC(=O)N[C@@H]32)C(=O)NCC(=O)O)NC(=O)[C@H](C)NC1=O` [inv-cL3] ({CH2CO}-[dY]TVTFYPDPFTLQFIACGSK(Biotin)G-OH; thioether N-17; C-terminus assumed), the IC50 in experiment [1] (data of Fig. 6b, four-parameter fit, CI 1.01-2.13, R2 0.94, read-out: IC50, competition with IgG, Fig. S18 fit) came out at 1.5 µM. In addition, the “Inhibition of C5b-9 deposition by pooled IgG (qualitative, rank)” value in experiment [1] (peptide incubated with 1% human serum, pooled IgG-coated plate, two technical replicates) is on record as “significantly worse than full-length cL3”. In addition, in experiment [2], the “Inhibition of C1q binding to pooled IgG” value is recorded as “minor inhibition of C1q binding to pooled IgG at high concentrations”.

In the case of `CC[C@H](C)[C@@H]1NC(=O)[C@H](Cc2ccccc2)NC(=O)[C@H](CCC(N)=O)NC(=O)[C@H](CC(C)C)NC(=O)[C@H]([C@@H](C)O)NC(=O)[C@H](Cc2ccccc2)NC(=O)[C@@H]2CCCN2C(=O)[C@H](CC(=O)O)NC(=O)[C@@H]2CCCN2C(=O)[C@H](Cc2ccc(O)cc2)NC(=O)[C@H](Cc2ccccc2)NC(=O)[C@H]([C@@H](C)O)NC(=O)[C@H](C(C)C)NC(=O)[C@H]([C@@H](C)O)NC(=O)[C@H](Cc2ccc(O)cc2)NC(=O)CSC[C@@H](C(=O)NCC(=O)N[C@@H](CO)C(=O)N[C@@H](CCCCNC(=O)CCCC[C@@H]2SC[C@@H]3NC(=O)N[C@@H]32)C(=O)NCC(=O)O)NC(=O)[C@H](C)NC1=O` [cL3-Bt] ({CH2CO}-YTVTFYPDPFTLQFIACGSK(Biotin)G-OH; thioether N-17), the EC50 on C1q (cL3-Bt titrated on streptavidin plate, technical duplicate on one plate (data of Fig. 3a), CI ND, R2 0.99, read-out: EC50 of C1q recruitment, Fig. S2 graph on the right) stood at 6.2 µM; at C1q (cL3-Bt titrated on streptavidin plate, technical duplicate on one plate, CI 7.4-9.1, R2 0.99, read-out: EC50 of C1q recruitment, Fig. S2 graph in the middle), 8.2 µM; at C1q (cL3-Bt titrated on streptavidin plate, technical duplicate on one plate, CI ND, R2 0.98, read-out: EC50 of C1q recruitment, Fig. S2 graph on the left), 2.68 µM.

These data come from article PMC11289891, “Selection and characterization of a peptide-based complement modulator targeting C1 of the innate immune system” (RSC Chemical Biology, 2024).
